Legend:
Assay type in all cases: physicochemical
[1] = Relative thermodynamic stability of non-solvated forms (ripening studies); conditions: temperatures from between 22° C. and 70° C.
Experimental: Excess Form 1 was combined with EtOH (1.8 mL) and the suspension was stirred at 57° C. for 6 hrs. The suspension was allowed to settle, and the saturated EtOH solution was isolated, and added into a 2-mL vial containing a mixture of Forms 1, Form 3, and Form 4 ([…] of each). The suspension was stirred at 57° C. for 24 hrs. The solid was isolated on a Büchner funnel and air-dried for ˜6 hrs.
Once the above preparation of Form 5 was obtained, additional Form 5 was produced as follows. Form 1 (100 mg) was weighed into a […] 4-mL vial containing a stir-bar. EtOH (4-mL) was added and the suspension was stirred for 12 hrs and at 25° C. The suspension was filtered and the filtrate (1.8 mL) was added into a 2-mail vial containing equivalent amounts (10 mg) of Forms 3, 4, and 5. An aliquot of the suspension was immediately sampled; the solid was isolated by filtration, and analyzed by PXRD to verify the crystal-form. The suspension was stirred at 25° C. for an additional 24 hrs. A second aliquot was sampled; the solid was isolated by filtration, and analyzed to verify the crystal-form. […]
Once Form 5 crystals were isolated they were used to prepare additional Form 5 as follows. […] The solid was isolated on a Büchner funnel and air-dried for ˜6 hrs and determined to be Form 5.

[2] = Dynamic Vapor Sorption (DVS) analysis; conditions: DVS at 25° C., 0% RH to 90% RH cycles
Experimental: Dynamic Vapor Sorption (DVS). DVS experiments were conducted on a Surface Measurement Systems DVS-HT at 25° C. The instrument was operated in step mode and the relative humidity was increased in 10% RH increments from 40% RH to 90% RH, then decreased from 90% RH to 0% RH, then increased from 0% RH to 90% RH, then decreased from 90% RH to 0% RH. An extra step at 75% RH was included in each cycle. The mass equilibrium criterion was set at 0.005% change in mass over time (dm/dt) prior to each humidity level. A minimum step time of 10 minutes and a maximum step time of 240 minutes were specified.

[3] = Crystal form stability when suspended and stirred in MeOH:water; conditions: stirred for 72 hours at ambient temperature
[4] = Physical (crystal form) stability on exposure to ambient conditions or relative humidity

DVS weight gain (hygroscopicity; non-hygroscopic) [2]: < 0.4 % wt. gain
crystal form conversion in suspension ([3]; suspended in MeOH:water 95:5% volume): converts to Form 2
crystal form conversion in suspension ([3]; suspended in MeOH:water 98:2% volume): converts to Form 2
physical stability ([4]; exposed to 75% relative humidity for 5 days): physically stable
physical stability ([4]; exposed to ambient conditions for at least 7 days): physically stable
Structure (SMILES): [2H]C([2H])([2H])C(c1cc2nnc(-c3cc(F)ccc3F)n2nc1OCc1ncnn1C)(C([2H])([2H])[2H])C([2H])([2H])[2H] [Form 5, 7-(tert-Butyl-d9)-3-(2,5-difluorophenyl)-6-((1-methyl-1H-1,2,4-triazol-5-yl)methoxy)-[1,2,4]triazolo[4,3-b]pyridazine]
thermodynamic stability relative to other non-solvated forms (Forms 1, 3 and 4) [1]: more thermodynamically stable than any of the other non-solvated forms
physical stability ([4]; exposed to 97% RH for 5 days at room temperature): physically unstable and partially converts to hydrated crystal Form 2

Source: US20150099753A1, “FORM 5 POLYMORPH OF 7-(TERT-BUTYL-D9)-3-(2,5-DIFLUOROPHENYL)-6-((1-METHYL-1H-1,2,4-TRIAZOL-5-YL)METHOXY)-[1,2,4]TRIAZOLO[4,3-B]PYRIDAZINE” (Concert Pharmaceuticals Inc., priority 2012, published 2015)
